Read-outs that look alike come from different tables or passages of the source. Marks after values point to notes of the source that are not given here. Blank lines part the entries; values can stand above or below the molecule they belong to.
What was measured:
GST-Bcl-xL = GST-Bcl-xL (Homo sapiens, UniProt Q07817); assay: TR-FRET Bcl-xL binding assay (competition with probe F-Bak)
Protocol: Tb-anti-GST antibody was purchased from Invitrogen (Catalog No. PV4216).
For the assay, test compounds were serially diluted in DMSO starting at 50 μM (2× starting concentration; 10% DMSO) and 10 μL transferred into a 384-well plate. 10 μL of a protein/probe/antibody mix was then added to each well at final concentrations listed below:
The samples were then mixed on a shaker for 1 minute and incubated for an additional 2 hours at room temperature. For each assay plate, a probe/antibody and protein/antibody/probe mixture were included as a negative and a positive control, respectively. Fluorescence was measured on the Envision (Perkin Elmer) using a 340/35 nm excitation filter and 520/525 (F-Bak) and 495/510 nm (Tb-labeled anti-his antibody) emission filters. Dissociation constants (Ki) were determined using Wang's equation (Wang, 1995, FEBS Lett. 360:111-114). The TR-FRET assay can be performed in the presence of varying concentrations of human serum (HS) or fetal bovine serum (FBS). Compounds were tested both without HS and in the presence of 1% HS.

[1] = system: Molt-4 human acute lymphoblastic leukemia cells; assay: Molt-4 cell viability assay (CellTiter-Glo, 48 hours); format: cell-based; details: 10% human serum, read-out: Molt-4 Viability EC50 (nM, 10% HS)
Source text: The ability of exemplary Bcl-xL inhibitors can be determined in cell-based killing assays using a variety of cell lines and mouse tumor models. For example, their activity on cell viability can be assessed on a panel of cultured tumorigenic and non-tumorigenic cell lines, as well as primary mouse or human cell populations. Bcl-xL inhibitory activity of exemplary Bcl-xL inhibitors was confirmed in a cell viability assay with Molt-4 cells.
In one exemplary set of conditions, Molt-4 (ATCC, Manassas, Va.) human acute lymphoblastic leukemia cells were plated 12,500 cells per well in 384-well tissue culture plates (Corning, Corning, N.Y.) in a total volume of 25 μL tissue culture medium supplemented with 10% human serum (Sigma-Aldrich, St. Louis, Mo.) and treated with a 3-fold serial dilution of the compounds of interest from 10 μM to 0.0005 μM. Each concentration was tested in duplicate at least 3 separate times. The number of viable cells following 48 hours of compound treatment was determined using the CellTiter-Glo Luminescent Cell Viability Assay according to the manufacturer's recommendations (Promega Corp., Madison, Wis.). Compounds were tested in the presence of 10% HS.

circulating platelets [2] = details: SCID/bg, mouse, in vivo, po, 100 mg/kg
EBC-1 xenografts = assay: Inhibition of EBC-1 xenograft tumor growth; format: in vivo, mouse; details: Table 13, 7.5 mg/kg/day IV QDx1
NCI-H1650 xenografts = assay: Inhibition of H1650 xenograft tumor growth; format: in vivo, mouse; details: Table 9
circulating platelets [3] = assay: Number of circulating platelets in mice after a single dose; details: for Lowest thrombocyte count / Time to lowest count: SCID/bg mice
NCI-H146 xenografts = assay: Inhibition of H146 xenograft tumor growth; format: in vivo, mouse; details: Table 14; 50 mg/kg/day PO QDx21
NCI-H1963.FP5 xenografts = assay: Inhibition of H1963.FP5 xenograft tumor growth; format: in vivo, mouse; details: Table 15; 50 mg/kg/day PO QDx21
[4] = in the presence of 1% human serum, read-out: Bcl-xL Binding Ki (nM, 1% HS)
[5] = without HS, read-out: Bcl-xL Binding Ki
[6] = 25 mg/kg/day PO QDx14, 25 mg/kg/day
[7] = single dose 0.61 mg/kg, intravenous

GST-Bcl-xL, sequence (Q07817 whole entry): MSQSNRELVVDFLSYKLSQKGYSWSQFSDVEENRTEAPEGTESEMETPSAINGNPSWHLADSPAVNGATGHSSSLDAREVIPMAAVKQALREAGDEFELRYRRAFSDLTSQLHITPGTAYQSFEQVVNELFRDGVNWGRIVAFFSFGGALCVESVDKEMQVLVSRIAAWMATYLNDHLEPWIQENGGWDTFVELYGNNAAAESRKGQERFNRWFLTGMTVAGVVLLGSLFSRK

Ki (GST-Bcl-xL; [4]): 0.094 nM
Ki (GST-Bcl-xL; [5]): 0.011 nM
EC50 [1]: 4 nM
SMILES: Cc1c(-c2ccc(N3CCc4cc(F)cc(C(=O)Nc5nc6ccccc6s5)c4C3)nc2C(=O)O)cnn1CC12CC3(C)CC(C)(C1)CC(OCCN)(C3)C2 [Example 1.7, 3-(1-{[3-(2-aminoethoxy)-5,7-dimethyltricyclo[3.3.1.1^3,7]dec-1-yl]methyl}-5-methyl-1H-pyrazol-4-yl)-6-[8-(1,3-benzothiazol-2-ylcarbamoyl)-6-fluoro-3,4-dihydroisoquinolin-2(1H)-yl]pyridine-2-carboxylic acid]

Time to lowest count (circulating platelets [2]): 6 h
Lowest thrombocyte count (circulating platelets [2]; 6 h): 10 1/10^3 of the platelet#/mm^3
SMILES: CC1(C)CCC(c2ccc(Cl)cc2)=C(CN2CCN(c3ccc(C(=O)NS(=O)(=O)c4ccc(N[C@H](CCN5CCOCC5)CSc5ccccc5)c(S(=O)(=O)C(F)(F)F)c4)cc3)CC2)C1 [ABT-263, Navitoclax]

Ki (GST-Bcl-xL; [4]): 0.62 nM
Ki (GST-Bcl-xL; [5]): 0.019 nM
EC50 [1]: 47 nM
SMILES: Cc1c(-c2ccc(N3CCc4c(F)ccc(C(=O)Nc5nc6ccccc6s5)c4C3)nc2C(=O)O)cnn1CC12CC3(C)CC(C)(C1)CC(OCCN)(C3)C2 [Example 1.6, 3-(1-{[3-(2-aminoethoxy)-5,7-dimethyltricyclo[3.3.1.1^3,7]dec-1-yl]methyl}-5-methyl-1H-pyrazol-4-yl)-6-[8-(1,3-benzothiazol-2-ylcarbamoyl)-5-fluoro-3,4-dihydroisoquinolin-2(1H)-yl]pyridine-2-carboxylic acid]

Ki (GST-Bcl-xL; [4]): 0.24 nM
Ki (GST-Bcl-xL; [5]): 0.01 nM
EC50 [1]: 12.1 nM
SMILES: Cc1c(-c2ccc(N3CCc4cccc(C(=O)Nc5nc6ccccc6s5)c4C3)nc2C(=O)O)cnn1CC12CC3(C)CC(C)(C1)CC(OCCOCCN)(C3)C2 [Example 1.4, 3-[1-({3-[2-(2-aminoethoxy)ethoxy]-5,7-dimethyltricyclo[3.3.1.1^3,7]dec-1-yl}methyl)-5-methyl-1H-pyrazol-4-yl]-6-[8-(1,3-benzothiazol-2-ylcarbamoyl)-3,4-dihydroisoquinolin-2(1H)yl]pyridine-2-carboxylic acid]

SMILES: CC(=O)O[C@@]12CO[C@@H]1C[C@H](O)[C@@]1(C)C(=O)[C@H](O)C3=C(C)[C@@H](OC(=O)[C@H](O)[C@@H](NC(=O)OC(C)(C)C)c4ccccc4)C[C@@](O)([C@@H](OC(=O)c4ccccc4)[C@H]21)C3(C)C [DTX, docetaxel]
Response Frequency CR (%) (EBC-1 xenografts): 0%
Response Frequency OR (%) (EBC-1 xenografts): 0%
Response Frequency PR (%) (EBC-1 xenografts): 0%
Growth Inhibition TGD (%) (EBC-1 xenografts; 7.5 mg/kg/day): 44%
Growth Inhibition TGImax (%) (EBC-1 xenografts; 7.5 mg/kg/day): 76%
Growth Inhibition TGD (%) (NCI-H1650 xenografts; 7.5 mg/kg/day IV QDx1): 94* %
Growth Inhibition TGImax (%) (NCI-H1650 xenografts; 7.5 mg/kg/day IV QDx1): 73* %
Response Frequency CR (%) (NCI-H1650 xenografts; 7.5 mg/kg/day IV QDx1): 0%
Response Frequency OR (%) (NCI-H1650 xenografts; 7.5 mg/kg/day IV QDx1): 0%
Response Frequency PR (%) (NCI-H1650 xenografts; 7.5 mg/kg/day IV QDx1): 0%

Ki (GST-Bcl-xL; [4]): 17 nM
Ki (GST-Bcl-xL; [5]): 0.1 nM
SMILES: Cc1c(-c2ccc(N3CCc4ccc(F)c(C(=O)Nc5nc6ccccc6s5)c4C3)nc2C(=O)O)cnn1CC12CC3(C)CC(C)(C1)CC(OCCN)(C3)C2 [Example 1.8, 3-(1-{[3-(2-aminoethoxy)-5,7-dimethyltricyclo[3.3.1.1^3′ ]dec-1-yl]methyl}-5-methyl-1H-pyrazol-4-yl)-6-[8-(1,3-benzothiazol-2-ylcarbamoyl)-7-fluoro-3,4-dihydroisoquinolin-2(1H)-yl]pyridine-2-carboxylic acid]

Ki (GST-Bcl-xL; [4]): 0.097 nM
Ki (GST-Bcl-xL; [5]): < 0.001 nM
EC50 [1]: 6.6 nM
SMILES: Cc1c(-c2ccc(N3CCc4cccc(C(=O)Nc5nc6ccccc6s5)c4C3)nc2C(=O)O)cnn1CC12CC3(C)CC(C)(C1)CC(OCCN)(C3)C2 [Example 1.3, 3-(1-{[3-(2-aminoethoxy)-5,7-dimethyltricyclo[3.3.1.1^3,7]dec-1-yl]methyl}-5-methyl-1H-pyrazol-4-yl)-6-[8-(1,3-benzothiazol-2-ylcarbamoyl)-3,4-dihydroisoquinolin-2(1H)yl]pyridine-2-carboxylic acid]

Lowest thrombocyte count (circulating platelets [3]; single dose 25 mg/kg, oral): 9 1/10^3 of the platelet#/mm^3
Time to lowest count (circulating platelets [3]; single dose 25 mg/kg, oral): 6 h
SMILES: Cc1c(-c2ccc(N3CCc4cccc(C(=O)Nc5nc6ccccc6s5)c4C3)nc2C(=O)O)cnn1CC12CC3CC(CC(C3)C1)C2 [Example A-1331852]
Response Frequency CR (%) (NCI-H1650 xenografts; 25 mg/kg/day PO QDx14): 0%
Response Frequency OR (%) (NCI-H1650 xenografts; 25 mg/kg/day PO QDx14): 0%
Response Frequency PR (%) (NCI-H1650 xenografts; 25 mg/kg/day PO QDx14): 0%
Growth Inhibition TGD (%) (NCI-H1650 xenografts; [6]): 78%
Growth Inhibition TGImax (%) (NCI-H1650 xenografts; [6]): 57%

Ki (GST-Bcl-xL; [4]): 0.39 nM
Ki (GST-Bcl-xL; [5]): 0.0029 nM
EC50 [1]: 7.8 nM
Decrease of the platelet number from normal count (circulating platelets [3]; dose of 0.61 mg/kg): 100 fold
Lowest thrombocyte count (circulating platelets [3]; [7]): 6 1/10^3 of the platelet#/mm^3
Time to lowest count (circulating platelets [3]; [7]): 6 h
SMILES: CNCCOC12CC3(C)CC(C)(CC(Cn4ncc(-c5ccc(N6CCc7cccc(C(=O)Nc8nc9ccccc9s8)c7C6)nc5C(=O)O)c4C)(C3)C1)C2 [Example 1.1]

Ki (GST-Bcl-xL; [4]): 0.51 nM
Ki (GST-Bcl-xL; [5]): 0.04 nM
EC50 [1]: 5.4 nM
SMILES: CNCCOCCOCCOC12CC3(C)CC(C)(CC(Cn4ncc(-c5ccc(N6CCc7cccc(C(=O)Nc8nc9ccccc9s8)c7C6)nc5C(=O)O)c4C)(C3)C1)C2 [Example 1.2, 6-[8-(1,3-benzothiazol-2-ylcarbamoyl)-3,4-dihydroisoquinolin-2(1H)-yl]-3-(1-({[(1r,3R,5S,7s)-3,5-dimethyl-7-(2-(2-[2-(methylamino)ethoxy]ethoxy}ethoxy)tricyclo[3.3.1.1^3,7]dec-1-yl]methyl)-5-methyl-1H-pyrazol-4-yl)pyridine-2-carboxylic acid]

SMILES: CC1(C)CCC(CN2CCN(c3ccc(C(=O)NS(=O)(=O)c4ccc(NCC5CCOCC5)c([N+](=O)[O-])c4)c(Oc4cnc5[nH]ccc5c4)c3)CC2)=C(c2ccc(Cl)cc2)C1 [ABT-199]
Growth Inhibition TGD (%) (NCI-H146 xenografts): 48* %
Growth Inhibition TGImax (%) (NCI-H146 xenografts): 75* %
Response Frequency CR (%) (NCI-H146 xenografts): 0%
Response Frequency OR (%) (NCI-H146 xenografts): 0%
Response Frequency PR (%) (NCI-H146 xenografts): 0%
Growth Inhibition TGD (%) (NCI-H1963.FP5 xenografts): 22* %
Growth Inhibition TGImax (%) (NCI-H1963.FP5 xenografts): 50* %
Response Frequency CR (%) (NCI-H1963.FP5 xenografts): 0%
Response Frequency OR (%) (NCI-H1963.FP5 xenografts): 0%
Response Frequency PR (%) (NCI-H1963.FP5 xenografts): 0%

Ki (GST-Bcl-xL; [4]): 0.078 nM
Ki (GST-Bcl-xL; [5]): < 0.001 nM
EC50 [1]: 1.85 nM
SMILES: COCCNCCOC12CC3(C)CC(C)(CC(Cn4ncc(-c5ccc(N6CCc7cccc(C(=O)Nc8nc9ccccc9s8)c7C6)nc5C(=O)O)c4C)(C3)C1)C2 [Example 1.5, 6-[8-(1,3-benzothiazol-2-ylcarbamoyl)-3,4-dihydroisoquinolin-2(1H)-yl]-3-(1-[(3-{2-[(2-methoxyethyl)amino]ethoxy}-5,7-dimethyltricyclo[3.3.1.1^3,7]dec-1-yl)methyl]-5-methyl-1H-pyrazol-4-yl)pyridine-2-carboxylic acid]

From patent publication US20200246323A1, “Antibody Drug Conjugates with Cell Permeable BCL-XL Inhibitors” (AbbVie Inc., priority 2014, published 2020)
